Experimental data as given in EP4806427A2, “TOPICAL PHARMACEUTICAL COMPOSITIONS” (priority 2015, dated 2016).

Legend:
[1] = 28 day twice daily topical administration: toxicokinetics, skin concentrations, dermal irritancy and toxicity; assay type: in vivo, Göttingen minipigs
Protocol: Following dose application on each dosing day, the dose sites were semi-occluded for approximately 20 ± 1 hours from the first dose and then gently washed before the next dose was applied.

[2] = Solubility of the active ingredient in different solvents; assay type: physicochemical
Protocol: The solubility of the active ingredient in different solvents was determined. […] The following formulations were prepared with 5%, 10%, 15% and 20% MCT (Formulations 15-18). Two formulations (Formulations 19 and 20) were also prepared where Polawax (a proprietary blend of cetostearyl alcohol and emulsifiers) was replaced with cetostearyl alcohol and additional emulsifier.

[3] = system: AhR target gene, cyp1a1; experiment: Expression of AhR target gene in keratinocytes and leukocytes; assay type: cell-based; settings: primary human keratinocytes, and human or rodent leukocytes
[4] = Gao et al. 2011; cited from earlier work
[5] = system: AhR pathway; experiment: Target profiling; assay type: cell-based; settings: intestinal human colon adenocarcinoma
[6] = minipig, topical or ocular, 60 mg/kg/day

In the case of `CC(C)c1c(O)cc(/C=C/c2ccccc2)cc1O` [3,5-Dihydroxy-4-isopropyl-trans-stilbene], the “No Observed Adverse Effect Level (NOAEL) for dermal irritation or systemic toxicity” value ([1]; 28 days, twice daily topical, ~10% of total body surface area, highest dose tested) is reported as 3 % (w/w), the “Cmax Day 28” value ([1]; Male, 60 mg/kg/day, 40320 min) is reported as 0.845 ng/mL and the “dermal irritation and systemic toxicity” value ([1]; minipig, in vivo) is reported as “no dermal irritation or systemic toxicity”. For the same compound, the “gender-averaged skin concentration at necropsy, epidermis/upper dermis” value [1, 6] was 8265 ng/g, the “gender-averaged skin concentration at necropsy, lower dermis” value [1, 6] was 1830 ng/g and the solubility ([2]; in medium chain triglycerides (MCT)) was “good solubility”. The solubility ([2]; in water) was “not soluble in water”, the “expression of the AhR target gene, cyp1a1” value [3] was “induce the expression” and the “sensitivity to oxidation and photo degradation” value [4] was “sensitive to oxidation and photo degradation”. The “effect on the AhR pathway” value [5] was “activator”.
